Test results as given in patent US3997530A, “Substituted enaminoketones” (American Cyanamid Company, priority 1976, dated 1976).
“And” between values parts separate entries of the source, which are not always exact repeats. Equal values may be shown once. Each block holds one molecule with its values, some of them ahead of it.

What was measured:
[1] = Water solubility of salts; assay type: physicochemical
[2] = Antipyretic activity, brewers' yeast-induced hyperthermia (modified Teotino et al.); assay type: in vivo, rats
Protocol: The compounds of this invention also show antipyretic activity by their ability to reduce a hyperthermic response in warm-blooded animals, e.g., rats, induced by the subcutaneous injection of a suspension of brewers' yeast. This is a modification of the method described by Teotino, et al., J. Med. Chem. 6, 248 (1963). A 40% suspension of brewer's yeast in distilled water is administered to groups of five to ten rats subcutaneously (1.0 ml./100 g. of body weight). Eighteen hours later, rectal temperatures are recorded and compounds, control vehicle (2% starch suspension) or aspirin is administered. Rectal temperatures are recorded 4 hours later and the results are compared with the starch treated controls and with aspirin, a reference antipyretic agent.

[3] = Walking gait test in rats with yeast-inflamed paw (modified Atkinson and Cowan); assay type: in vivo, male, albino Wistar strain rats; conditions: oral by gavage, dose producing 50% reversal of the pre-dose gait score, one and/or two hours post-drug
Protocol: Atkinson and A. Cowan, J. Pharm. Pharmac, 26, 727 (1974).
In this test male, albino Wistar strain rats from Royalhart farms, weighing 120-150 g. are deprived of food for about 20 hours. A 40% suspension of brewers' yeast in physiological saline is injected, at a concentration of 0.25 ml/rat into the plantar surface of the left hind paw of each rat. 3 hours later, at which time an inflammation of the injected paw has developed, a pre-drug assessment of walking gait is made for each rat according to the following scoring system:
0 = Normal gait in the presence of a severely inflammed paw. There is continuous use of the foot pad.
0.5 = As above with intermittent mild limping.
1.0 = Constant limping, but continuous use of the foot pad.
1.5 = Limping with occasional three-legged gait (paw kept off walking surface) or intermittent use of digits in combination with foot pad.
2.0 = Continuous three-legged gait and/or only the tips of the digits touch the walking surface. There is no use of foot pad.
Compounds, in a suitable vehicle, are administered orally by gavage in a volume of 0.5 ml./100 g. of body weight. One and/or two hours later a post-drug assessment of walking gait is made as described above. The criterion of an analgesic response for each rat is a 50% reversal of the abnormal gait score (post-drug) from the pre-drug score. […]

[4] = Brewer's Yeast Pressure Pain Test (modified Randall and Selitto); assay type: in vivo, rats
Protocol: To determine analgesic activity, a modification of the method of Randall and Selitto [Arch. int. Pharmacodyn., 111, 409 (1957)] is used. This test measures the pain threshold of rats whose paws are made sensitive to pressure by the injection of a 20% aqueous suspension (0.1 ml.) of brewers' yeast into the plantar surface of the left hind paw. Constantly increasing force (16 grams/second) is applied to the swollen paw using an Analgesy Meter, Ugo Basile. The pressure is cut off at 250 grams of force when there is no response (sudden struggle or vocalization). Control rats treated with the starch vehicle response to a pressure or force of about 30 grams. Pressure-pain thresholds are always recorded 2 hours after brewers' yeast. Analgesic agents are administered at the same time as the yeast, at a dose of 200 mg./kg. orally. Ratios of treated (T)/control (C) reaction thresholds are calculated as estimates of analgesic efficacy (degree of analgesia attainable). Potency is regarded as the dose necessary to produce a given level of analgesia (i.e. 100% elevation of pain threshold is T/C=2.0).

[5] = "writhing syndrome" test for analgesic activity (phenyl-p-quinone); assay type: in vivo, male Swiss albino mice; conditions: 100 mg./kg. oral, 30 minutes before phenyl-p-quinone; 3 minute count commencing 15 minutes after; control approximately 30 per pair; active if 18 or less
Source text: The substituted enaminoketones of the present invention are active analgesics when measured by the "writhing syndrome" test for analgesic activity as described by Siegmund, et al., Proc. Soc. Exp. Bio. and Med., 95, 729 (1957), with modifications. This method is based upon the reduction of the number of writhes following the intraperitoneal injection of one mg./kg. of body weight of phenyl-p-quinone in male Swiss albino mice weighing 18-25 gm. The syndrome is characterized by intermittent contractions of the abdomen, twisting and turning of the trunk, and extension of the hind legs beginning 3 to 5 minutes after injection of the phenyl-p-quinone. The test compounds are administered orally at the indicated dose to groups of 2 mice each, 30 minutes before injection of the phenyl-p-quinone. […] A compound is considered active if it reduces the total number of writhes in 2 test mice from a control value of approximately 30 pair to a value of 18 or less. Table I summarized the results of this test on representative compounds of this invention.

water solubility ([1]; phosphate salt): water soluble
Compound: c1cc(-c2cc(C3CC3)no2)ccn1 [4-(3-cyclopropyl-5-isoxazolyl)pyridine]

water solubility ([1]; citrate salt): slightly water soluble
Compound: c1cc(-c2cc(C3CC3)on2)ccn1 [4-(5-cyclopropyl-3-isoxazolyl)pyridine]

Compound: CC(=O)Oc1ccccc1C(=O)O [Aspirin, reference compound]
effect on temperature of normal rats ([2]; aspirin reference, dose not given, normal rats): not effecting the temperature of normal rats
lowering yeast-elevated temperatures ([2]; aspirin reference, dose not given, yeast-treated rats): similarly effective in lowering yeast-elevated temperatures

solubility ([1]; acetate salt): slightly soluble
Compound: c1cncc(-c2cc(C3CC3)on2)c1 [3-(5-cyclopropyl-3-isoxazolyl)pyridine]

Compound: NC(=CC(=O)c1cccnc1)C1CC1 [3-amino-3-cyclopropyl-1-(3-pyridyl)-2-propen-1-one]
ED50 ([3]; Rattus norvegicus, po, 2 h, read-out: ED50): 27 mg/kg
ED50 [3]: 40 mg/kg and 26 mg/kg

water solubility ([1]; sulfate salt): water soluble
Compound: c1cncc(-c2cc(C3CC3)no2)c1 [3-(3-cyclopropyl-5-isoxazolyl)pyridine]

Compound: NC(=CC(=O)c1ccncc1)C1CC1 [3-amino-3-cyclopropyl-1-(4-pyridyl)-2-propen-1-one]
Ratio (Treated/Control) Measured at 2 Hours Following 200 mg./kg. Oral Dose ([4]; 200 mg./kg. orally, 2 hours after brewers' yeast, ratio of reaction thresholds T/C): 1.45 and 1.39
ED50 ([4]; Rattus norvegicus, 2 h, oral, Brewer's Yeast Pressure Pain Test): 25 mg/kg
No. of writhes per pair [5]: 9.4
effect on body temperature of normal rats ([2]; 200 mg./kg., normal rats): not effecting the body temperature of normal rats
lowering the yeast-elevated body temperature of rats ([2]; 200 mg./kg., rectal temperature 4 hours later, yeast-treated rats): effective in lowering the yeast-elevated body temperature of rats

Compound: NC(=CC(=O)c1cnccn1)C1CC1 [1-amino-1-cyclopropyl-3-(2-pyrazinyl)-1-propen-3-one]
No. of writhes per pair [5]: 3.8
